The results in this text go back to EPA's ToxValDB 9.5.

Data set [1] relates to Rattus norvegicus.
For data set [2], the system named is Canidae. The conditions noted are these: for NOAEL: subchronic, duration: 90 days, Beagle.
The test system of data set [3] is Canidae. As to conditions: subchronic; duration: 3 months; oral; gavage; M/F; Beagle; Mydriasis.
For data set [4], the system named is Mus musculus. The conditions noted are these: for LD50: acute.
Data set [5] concerns Rattus norvegicus. The conditions noted are these: subchronic; duration: 42 days; oral; gavage; CD(SD).
Data set [6] concerns Rattus norvegicus. As to conditions: chronic; duration: 6 months; oral; diet; M; increased liver-to-body weight and liver-to-brain weight ratios.
The subject of data set [7] is Rattus norvegicus. As to conditions: chronic; duration: 26 weeks; oral; diet; Liver: Altered weight.
Data set [8] concerns Oryctolagus sp.
Data set [9] relates to Rattus norvegicus. The conditions noted are these: developmental, oral, M.

`CC(C)(C)c1cc(Cn2c(=O)n(Cc3cc(C(C)(C)C)c(O)c(C(C)(C)C)c3)c(=O)n(Cc3cc(C(C)(C)C)c(O)c(C(C)(C)C)c3)c2=O)cc(C(C)(C)C)c1O`: the 50% lethal dose (LD50) – broadly, the dose at which mortality reaches 50% – is more than 2000 mg/kg in [1] (acute, dermal); more than 2000 mg/kg in [1] (acute, dermal, Albino rats / Tif: RAI f (SPF)); more than 5000 mg/kg in [1] (acute, oral, gavage, Tif : Raif (SPF), F3 - hybrid of RII 1/ Tif x RII 2/ Tif). The NOAEL (in general, the highest tested level that showed no adverse finding) in data set [1] (chronic, duration: 92 days, oral, diet, F, Tif: RAIf (SPF), hybrids of RII/1 x RII/2) is 62.4 mg/kg-day; in [1] (chronic, duration: 92 days, oral, diet, M, Tif: RAIf (SPF), hybrids of RII/1 x RII/2), 234 mg/kg-day; in [2] (oral, diet), 370 mg/kg-day; in data set [2] (oral, diet, F) it was 370 mg/kg-day; in data set [2] (oral, diet, M) it was 370 mg/kg-day. Moreover, the NOAEC in [1] (subchronic, duration: 90 days, oral, diet, Albino Rats / Charles River strain) came out at 960 mg/kg-day.
Regarding `Cc1ccc2c(=O)c3cccc(CC(=O)O)c3oc2c1C` [5,6-Dimethylxanthenone-4-acetic acid], in data set [3], the LOEL worked out at 0.3 mg/kg-day and the NOEL was 0.1 mg/kg-day.
For the molecule `CCCCCCCCCCCCCCCCCC(=O)OC[C@@H](O)[C@H]1OC[C@H](O)[C@H]1O` [Anhydrosorbitol stearate], the “NOAEL (% diet)” value stood at 0.5 in data set [4] (chronic, duration: 80 weeks, dermal, (TO)); 5 in data set [1] (reproduction developmental, duration: 2 years, oral, diet); 5 in [2] (chronic, duration: 20 months, dermal, Dog Other). The molecule further gave a median lethal dose (LD50) in data set [1] (acute, oral, gavage, Wistar) of more than 15900 mg/kg. Further, the LOAEL – broadly, the lowest tested level that showed an adverse finding – in [2] (chronic, duration: 21 months, oral, diet, Mongrel or Irish terrier) was 485 mg/kg-day. Besides, the NOEL in data set [5] stood at 1000 mg/kg-day.
Regarding `CCCCOC(=O)c1ccccc1C(=O)OCc1ccccc1` [Benzyl butyl phthalate], the lowest observed adverse effect level (LOAEL) in [6] amounted to 470 mg/kg-day; in data set [1] (chronic, duration: 365 days, oral, diet, F, Fischer 344), 360 mg/kg-day; in data set [1] (short-term, duration: 21 days, oral, diet, Fischer 344) it was 639 mg/kg-day; in [1] (short-term, duration: 28 days, oral, diet, Fischer 344), 540 mg/kg-day. Besides, the no-observed-adverse-effect level (NOAEL) in data set [6] was 159 mg/kg-day; in data set [7], 159 mg/kg-day; in [4] (short-term, duration: 14 days, oral, diet, B6C3F1), more than 5250 mg/kg-day; in data set [1] (chronic, duration: 182 days, oral, diet, Fischer 344) it was 470 mg/kg-day; in data set [1] (reproduction developmental, duration: 26 weeks, oral, diet, Fischer 344, generation: F0) it was 498 mg/kg-day; in data set [1] (reproduction developmental, duration: 26 weeks, oral, diet, Fischer 344, generation: F1), 168 mg/kg-day. Further, the no-observed-adverse-effect level (NOAEL) in [1] (reproduction developmental, duration: 26 weeks, oral, diet, M, Fischer 344) stood at 168 mg/kg-day; in [1] (reproduction developmental, duration: 8 days, oral, gavage, F, Wistar) it was 500 mg/kg-day; in data set [1] (reproduction developmental, duration: 8 days, oral, gavage, Wistar, generation: F1), 500 mg/kg-day; in data set [1] (reproduction developmental, duration: 10 days, oral, diet, F, Sprague-Dawley) it was 420 mg/kg-day; in data set [1] (reproduction developmental, duration: 10 days, oral, diet, Sprague-Dawley, generation: F1), 1100 mg/kg-day; in data set [1] (reproduction developmental, duration: 14 days, oral, diet, Fischer 344, generation: F0) it was 750 mg/kg-day. The NOAEL in [1] (reproduction developmental, duration: 20 days, oral, diet, Wistar, generation: F1) was more than 1020 mg/kg-day; in [1] (reproduction developmental, duration: 21 days, oral, diet, Fischer 344, generation: F0) it was not above 679 mg/kg-day; in [1] (reproduction developmental, oral, diet, F, Wistar), less than 631 mg/kg-day; in [1] (reproduction developmental, oral, diet, Wistar, generation: F0) it was 206 mg/kg-day; in [1] (short-term, duration: 14 days, oral, gavage, Sprague-Dawley), 160 mg/kg-day; in data set [1] (short-term, duration: 14 days, oral, gavage, Wistar), 480 mg/kg-day. Also, the NOAEL in data set [1] (short-term, duration: 28 days, oral, diet, Sprague-Dawley) worked out at 1000 mg/kg-day; in data set [1] (subchronic, duration: 42 days, oral, diet, Sprague-Dawley) it was 500 mg/kg-day; in data set [1] (subchronic, duration: 90 days, inhalation, Sprague-Dawley) it was 0.218 mg/L; in [1] (subchronic, duration: 90 days, oral, diet, Sprague-Dawley), 375 mg/kg-day; in [1] (subchronic, duration: 90 days, oral, diet, Wistar), 151 mg/kg-day; in data set [2] (oral), 500 mg/kg-day. The same molecule returned an NOAEL in data set [8] (reproduction developmental, duration: 12 days, oral, F, New Zealand) of 10 mg/kg-day. Besides, the LD50 is 3160 mg/kg in data set [4] (injection, Intraperitoneal, Swiss-Webster); 4170 mg/kg in data set [4] (oral); 2660 mg/kg in [1] (acute, injection, Intraperitoneal); more than 10000 mg/kg in data set [8] (acute, dermal). For the same molecule, the 50% lethal concentration (LC50) (commonly the concentration lethal to half of the exposed cells or organisms) in [1] (acute, inhalation) is more than 6.7 µg/mL. The NOEL in data set [9] (Albino, generation: F1, F1: AGD (units not specified)) was found to be 100 mg/kg-day; in data set [9] (gavage, Crj:CD, generation: F1, F1: AGD (mm) + F1: AGD (mm/cube root BW)), 400 mg/kg-day. For the same molecule, the LOEL in [9] (drinking water, Wistar Alpk, generation: F1, F1: AGD (mm)) came out at 0.18 mg/kg-day; in [9] (gavage, Crj:CD, generation: F2, F2: AGD (mm)) it was 100 mg/kg-day.
